{"source": "patent US6737383B1", "about": "“Herbicidal oxadiazolidines” (priority 1999, dated 2004)", "key": {"blackgrass": {"system": "blackgrass", "assay": "Test B pre/postemergence blackgrass", "assay_type": "in vivo, Alopecurus myosuroides", "summary_of_the_method": "(§1)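 Herbicidal effect was estimated by eye on a ten-point control scale after plants spent twelve to sixteen days in a greenhouse following soil or foliar treatment. Foliar sprays targeted plants at one to four leaves; all doses were formulated in a non-phytotoxic solvent with surfactant.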"}, "rice": {"system": "rice", "assay": "Test B flood test rice", "assay_type": "in vivo, Oryza sativa", "details": "for Rice plant response rating: scale of 0 to 10 where 0 is no effect and 10 is complete control", "summary_of_the_method": "(§2)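 Flood test on plants grown to the 2-leaf stage; treated plants kept in greenhouse twelve to sixteen days, then visually rated against controls on a 0 (no effect) to 10 (complete control) scale.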"}, "velvetleaf": {"system": "velvetleaf", "assay": "Test B pre/postemergence velvetleaf", "assay_type": "in vivo, Abutilon theophrasti", "summary_of_the_method": "as §1"}, "morningglory": {"system": "morningglory", "assay": "Test B pre/postemergence morningglory", "assay_type": "in vivo, Ipomoea hederacea", "summary_of_the_method": "as §1"}, "pigweed": {"system": "pigweed", "assay": "Test B pre/postemergence pigweed", "assay_type": "in vivo, Amaranthus retroflexus", "summary_of_the_method": "as §1"}, "soybean": {"system": "soybean", "assay": "Test B pre/postemergence soybean", "assay_type": "in vivo, Glycine max", "summary_of_the_method": "as §1"}, "purple nutsedge": {"system": "purple nutsedge", "assay": "Test B pre/postemergence purple nutsedge", "assay_type": "in vivo, Cyperus rotundus", "summary_of_the_method": "as §1"}, "wild oat": {"system": "wild oat", "assay": "Test B pre/postemergence wild oat", "assay_type": "in vivo, Avena fatua", "summary_of_the_method": "as §1"}, "giant foxtail": {"system": "giant foxtail", "assay": "Test B pre/postemergence giant foxtail", "assay_type": "in vivo, Setaria faberii", "summary_of_the_method": "as §1"}, "crabgrass": {"system": "crabgrass", "assay": "Test B pre/postemergence crabgrass", "assay_type": "in vivo, Digitaria sanguinalis", "summary_of_the_method": "as §1"}, "bamyardgrass": {"system": "bamyardgrass", "assay": "Test B flood test barnyardgrass", "assay_type": "in vivo, Echinochloa crus-galli", "details": "for Plant response rating, Barnyardgrass: scale 0 to 10, 0 is no effect, 10 is complete control; for Barnyardgrass plant response rating: scale of 0 to 10 where 0 is no effect and 10 is complete control", "summary_of_the_method": "as §2"}, "smallflower flatsedge": {"system": "smallflower flatsedge", "assay": "Test B flood test smallflower flatsedge", "assay_type": "in vivo, Cyperus difformis", "details": "for S. Flatsedge plant response rating: scale of 0 to 10 where 0 is no effect and 10 is complete control", "summary_of_the_method": "as §2"}, "surinam grass": {"system": "surinam grass", "assay": "Test B pre/postemergence surinam grass", "assay_type": "in vivo, Brachiaria decumbens", "summary_of_the_method": "as §1"}, "wheat": {"system": "wheat", "assay": "Test B pre/postemergence wheat", "assay_type": "in vivo, Triticum aestivum", "summary_of_the_method": "as §1"}, "cocklebur": {"system": "cocklebur", "assay": "Test B pre/postemergence cocklebur", "assay_type": "in vivo, Xanthium strumarium", "summary_of_the_method": "as §1"}, "[1]": {"details": "Postemergence, Rate 125 g/ha, scale 0 to 10, 0 is no effect, 10 is complete control"}, "[2]": {"details": "Postemergence, Rate 250 g/ha, scale 0 to 10, 0 is no effect, 10 is complete control"}, "[3]": {"details": "Postemergence, Rate 500 g/ha, scale of 0 to 10 where 0 is no effect and 10 is complete control"}, "[4]": {"details": "Preemergence, Rate 62 g/ha, scale 0 to 10 (0 no effect, 10 complete control)"}, "[5]": {"details": "Preemergence, Rate 125 g/ha, scale of 0 to 10 where 0 is no effect and 10 is complete control"}, "[6]": {"details": "Preemergence, Rate 250 g/ha, scale of 0 to 10 where 0 is no effect and 10 is complete control"}, "[7]": {"details": "Preemergence, Rate 500 g/ha, scale 0 to 10, 0 is no effect, 10 is complete control"}, "[8]": {"details": "Rate 62 g/ha, Postemergence, scale of 0 to 10 where 0 is no effect and 10 is complete control"}, "[9]": {"details": "Postemergence section (flood test species), Rate 500 g/ha"}, "[10]": {"details": "Rate 62 g/ha, Postemergence (flood test species)"}, "[11]": {"details": "flood test species, listed under Postemergence, Rate 250 g/ha, scale 0 to 10, 0 is no effect, 10 is complete control"}, "[12]": {"details": "Preemergence, Rate 250 g/ha, scale 0 to 10, 0 is no effect, 10 is complete control"}}, "data": [{"smiles": "CC(C)N(C(=O)n1oc(=O)n(CCC(F)(F)F)c1=O)c1ccc(F)cc1", "note": "[Compound 397]", "values": [{"measurement": "Plant response rating, Blackgrass", "setting": "blackgrass; [1]", "value": 8}, {"measurement": "Plant response rating, Blackgrass", "setting": "blackgrass; [2]", "value": 9}, {"measurement": "Blackgrass plant response rating", "setting": "blackgrass; [3]", "value": 9}, {"measurement": "Plant response rating, Blackgrass", "setting": "blackgrass; [4]", "value": 7}, {"measurement": "Plant response rating, Blackgrass", "setting": "blackgrass; [5]", "value": 9}, {"measurement": "Blackgrass plant response rating", "setting": "blackgrass; [6]", "value": 10}, {"measurement": "Blackgrass plant response rating", "setting": "blackgrass; [7]", "value": 10}, {"measurement": "Blackgrass plant response rating", "setting": "blackgrass; [8]", "value": 6}, {"measurement": "Rice plant response rating", "setting": "rice; [9]", "value": 0}, {"measurement": "Rice plant response rating", "setting": "rice; [10]", "value": 0}, {"measurement": "Plant response rating, Rice", "setting": "rice; [11]", "value": 0}, {"measurement": "Plant response rating, Velvetleaf", "setting": "velvetleaf; [2]", "value": 0}, {"measurement": "Velvetleaf plant response rating", "setting": "velvetleaf; [3]", "value": 0}, {"measurement": "Plant response rating, Velvetleaf", "setting": "velvetleaf; [4]", "value": 0}, {"measurement": "Plant response rating, Velvetleaf", "setting": "velvetleaf; [5]", "value": 2}, {"measurement": "Velvetleaf plant response rating", "setting": "velvetleaf; [12]", "value": 6}, {"measurement": "Velvetleaf plant response rating", "setting": "velvetleaf; [7]", "value": 6}, {"measurement": "Velvetleaf plant response rating", "setting": "velvetleaf; [8]", "value": 0}, {"measurement": "Plant response rating, Morningglory", "setting": "morningglory; [2]", "value": 5}, {"measurement": "Morningglory plant response rating", "setting": "morningglory; [3]", "value": 6}, {"measurement": "Plant response rating, Morningglory", "setting": "morningglory; [4]", "value": 0}, {"measurement": "Plant response rating, Morningglory", "setting": "morningglory; [5]", "value": 0}, {"measurement": "Morningglory plant response rating", "setting": "morningglory; [12]", "value": 0}, {"measurement": "Morningglory plant response rating", "setting": "morningglory; [7]", "value": 4}, {"measurement": "Morningglory plant response rating", "setting": "morningglory; [8]", "value": 0}, {"measurement": "Plant response rating, Redroot pigweed", "setting": "pigweed; [2]", "value": 4}, {"measurement": "Redroot pigweed plant response rating", "setting": "pigweed; [3]", "value": 6}, {"measurement": "Plant response rating, Redroot pigweed", "setting": "pigweed; [4]", "value": 8}, {"measurement": "Plant response rating, Redroot pigweed", "setting": "pigweed; [5]", "value": 8}, {"measurement": "Redroot pigweed plant response rating", "setting": "pigweed; [12]", "value": 10}, {"measurement": "Redroot pigweed plant response rating", "setting": "pigweed; [7]", "value": 10}, {"measurement": "Redroot pigweed plant response rating", "setting": "pigweed; [8]", "value": 0}, {"measurement": "Plant response rating, Soybean", "setting": "soybean; [2]", "value": 5}, {"measurement": "Soybean plant response rating", "setting": "soybean; [3]", "value": 6}, {"measurement": "Plant response rating, Soybean", "setting": "soybean; [4]", "value": 0}, {"measurement": "Plant response rating, Soybean", "setting": "soybean; [5]", "value": 0}, {"measurement": "Soybean plant response rating", "setting": "soybean; [12]", "value": 0}, {"measurement": "Soybean plant response rating", "setting": "soybean; [7]", "value": 0}, {"measurement": "Soybean plant response rating", "setting": "soybean; [8]", "value": 3}, {"measurement": "Plant response rating, Nutsedge", "setting": "purple nutsedge; [2]", "value": 0}, {"measurement": "Nutsedge plant response rating", "setting": "purple nutsedge; [3]", "value": 0}, {"measurement": "Plant response rating, Nutsedge", "setting": "purple nutsedge; [4]", "value": 0}, {"measurement": "Plant response rating, Nutsedge", "setting": "purple nutsedge; [5]", "value": 0}, {"measurement": "Nutsedge plant response rating", "setting": "purple nutsedge; [12]", "value": 0}, {"measurement": "Nutsedge plant response rating", "setting": "purple nutsedge; [7]", "value": 0}, {"measurement": "Nutsedge plant response rating", "setting": "purple nutsedge; [8]", "value": 0}, {"measurement": "Wild oats plant response rating", "setting": "wild oat; [3]", "value": 5}, {"measurement": "Plant response rating, Wild oats", "setting": "wild oat; [4]", "value": 2}, {"measurement": "Plant response rating, Wild oats", "setting": "wild oat; [5]", "value": 5}, {"measurement": "Wild oats plant response rating", "setting": "wild oat; [12]", "value": 7}, {"measurement": "Wild oats plant response rating", "setting": "wild oat; [7]", "value": 10}, {"measurement": "Wild oats plant response rating", "setting": "wild oat; [8]", "value": 0}, {"measurement": "Plant response rating, Giant foxtail", "setting": "giant foxtail; [1]", "value": 8}, {"measurement": "Plant response rating, Giant foxtail", "setting": "giant foxtail; [2]", "value": 9}, {"measurement": "Giant foxtail plant response rating", "setting": "giant foxtail; [3]", "value": 9}, {"measurement": "Plant response rating, Giant foxtail", "setting": "giant foxtail; [4]", "value": 10}, {"measurement": "Plant response rating, Giant foxtail", "setting": "giant foxtail; [5]", "value": 10}, {"measurement": "Giant foxtail plant response rating", "setting": "giant foxtail; [12]", "value": 10}, {"measurement": "Giant foxtail plant response rating", "setting": "giant foxtail; [7]", "value": 10}, {"measurement": "Giant foxtail plant response rating", "setting": "giant foxtail; [8]", "value": 8}, {"measurement": "Plant response rating, Crabgrass", "setting": "crabgrass; [1]", "value": 6}, {"measurement": "Plant response rating, Crabgrass", "setting": "crabgrass; [2]", "value": 9}, {"measurement": "Crabgrass plant response rating", "setting": "crabgrass; [3]", "value": 9}, {"measurement": "Plant response rating, Crabgrass", "setting": "crabgrass; [4]", "value": 10}, {"measurement": "Plant response rating, Crabgrass", "setting": "crabgrass; [5]", "value": 10}, {"measurement": "Crabgrass plant response rating", "setting": "crabgrass; [12]", "value": 10}, {"measurement": "Crabgrass plant response rating", "setting": "crabgrass; [7]", "value": 10}, {"measurement": "Crabgrass plant response rating", "setting": "crabgrass; [8]", "value": 2}, {"measurement": "Plant response rating, Barnyardgrass", "setting": "bamyardgrass; Postemergence (flood test), Rate 125 g/ha", "value": 0}, {"measurement": "Barnyardgrass plant response rating", "setting": "bamyardgrass; [9]", "value": 0}, {"measurement": "Barnyardgrass plant response rating", "setting": "bamyardgrass; [10]", "value": 0}, {"measurement": "Plant response rating, Barnyardgrass", "setting": "bamyardgrass; flood test species, listed under Postemergence, Rate 250 g/ha", "value": 0}, {"measurement": "S. Flatsedge plant response rating", "setting": "smallflower flatsedge; [9]", "value": 0}, {"measurement": "S. Flatsedge plant response rating", "setting": "smallflower flatsedge; [10]", "value": 0}, {"measurement": "Plant response rating, S. Flatsedge", "setting": "smallflower flatsedge; [11]", "value": 0}, {"measurement": "Plant response rating, B. signalgrass", "setting": "surinam grass; [1]", "value": 0}, {"measurement": "Plant response rating, B. signalgrass", "setting": "surinam grass; [2]", "value": 2}, {"measurement": "B. signalgrass plant response rating", "setting": "surinam grass; [3]", "value": 8}, {"measurement": "Plant response rating, B. signalgrass", "setting": "surinam grass; [4]", "value": 3}, {"measurement": "Plant response rating, B. signalgrass", "setting": "surinam grass; [5]", "value": 6}, {"measurement": "B. signalgrass plant response rating", "setting": "surinam grass; [6]", "value": 9}, {"measurement": "B. signalgrass plant response rating", "setting": "surinam grass; Preemergence, Rate 500 g/ha, scale of 0 to 10 where 0 is no effect and 10 is complete control", "value": 10}, {"measurement": "B. signalgrass plant response rating", "setting": "surinam grass; [8]", "value": 0}, {"measurement": "Wheat plant response rating", "setting": "wheat; [3]", "value": 4}, {"measurement": "Plant response rating, Wheat", "setting": "wheat; [4]", "value": 0}, {"measurement": "Plant response rating, Wheat", "setting": "wheat; [5]", "value": 0}, {"measurement": "Wheat plant response rating", "setting": "wheat; [12]", "value": 2}, {"measurement": "Wheat plant response rating", "setting": "wheat; [7]", "value": 3}, {"measurement": "Wheat plant response rating", "setting": "wheat; [8]", "value": 0}, {"measurement": "Plant response rating, Cocklebur", "setting": "cocklebur; [1]", "value": 0}, {"measurement": "Plant response rating, Cocklebur", "setting": "cocklebur; [2]", "value": 0}, {"measurement": "Cocklebur plant response rating", "setting": "cocklebur; [3]", "value": 0}, {"measurement": "Plant response rating, Cocklebur", "setting": "cocklebur; [4]", "value": 0}, {"measurement": "Plant response rating, Cocklebur", "setting": "cocklebur; [5]", "value": 0}, {"measurement": "Cocklebur plant response rating", "setting": "cocklebur; [12]", "value": 0}, {"measurement": "Cocklebur plant response rating", "setting": "cocklebur; [7]", "value": 0}, {"measurement": "Cocklebur plant response rating", "setting": "cocklebur; [8]", "value": 0}]}]}
